Laboratory results as given in paper PMC8324038 (ACS infectious diseases, 2021).
Converted amounts (≈) assume the structure as drawn.

Assays:
[1] = biological target: T1, purified PenA1 β-lactamase (Burkholderia multivorans, UniProt A0A0H3KN52); assay: Acylation rate k2/K; format: biochemical; conditions: acylation rate (kinact/KI or k2/K), nitrocefin 100 μM reporter
T1 sequence (A0A0H3KN52 28-302): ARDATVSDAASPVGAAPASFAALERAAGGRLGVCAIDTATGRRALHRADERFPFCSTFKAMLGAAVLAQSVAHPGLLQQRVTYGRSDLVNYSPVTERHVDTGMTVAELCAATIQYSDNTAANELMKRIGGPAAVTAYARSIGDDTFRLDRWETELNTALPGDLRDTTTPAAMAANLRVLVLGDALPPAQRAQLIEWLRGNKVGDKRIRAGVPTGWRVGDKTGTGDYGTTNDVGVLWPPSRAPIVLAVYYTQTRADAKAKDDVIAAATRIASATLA

[2] = biological target: T1, purified PenA1 β-lactamase; assay: Steady-state inhibition kinetics, Ki-app, purified enzyme; format: biochemical; conditions: read-out: Km nitrocefin, used for correction of Ki-app
[3] = test system: E. coli DH10B pBC SK(+) empty; assay: MIC susceptibility testing, empty vector control; conditions: Escherichia coli

In the case of `O=C(O)[C@H]1/C(=C/CO)O[C@@H]2CC(=O)N21` [clavulanic acid], the k2/K [1] is reported as 340 to 2e+06 M⁻¹ s⁻¹.

`O=C(Cc1cccs1)N[C@@H]1C(=O)N2C(C(=O)O)=C(/C=C/c3ccc([N+](=O)[O-])cc3[N+](=O)[O-])CS[C@H]12` [nitrocefin] was tested, and the Km [2] was 147 µM.

In the case of `Cn1cc[n+](C[C@@]2(C)[C@H](C(=O)[O-])N3C(=O)C[C@H]3S2(=O)=O)n1` [enmetazobactam], the k2/K [1] is reported as 6.3 ± 2.0 × 10^5 M^−1 s^−1.

With `CCN1CCN(C(=O)N[C@@H](C(=O)N[C@@H]2C(=O)N3[C@@H]2SC(C)(C)[C@@H]3C(=O)O)c2ccccc2)C(=O)C1=O` [Piperacillin] the MIC [3] was 2 µg/mL (≈ 3.86 µM).
